Laboratory results as given in ChEMBL document CHEMBL6182871, “Discovery of 4-((quinolin-8-ylthio)methyl)benzamide derivatives as a new class of SARS-CoV-2 nsp13 inhibitors” (Bioorg Med Chem Lett, 2025).

The compounds below were run against T1, Replicase polyprotein 1ab (Severe acute respiratory syndrome coronavirus 2, UniProt P0DTD1) (assay: Binding affinity to SARS-CoV-2 nsp13 assessed as dissociation constant by MST assay).

Compound `Cn1cc(/C=N/NC(=O)c2ccc(CSc3cccc4cccnc34)cc2)cn1` has a Kd of 46100 nM.

The compounds below were run against T1, Replicase polyprotein 1ab (assay: Inhibition of SARS-CoV-2 nsp13 by FRET assay).

`O=C(N/N=C/c1cc([N+](=O)[O-])ccc1Cl)c1ccc(COc2cccc3ccccc23)cc1` and `O=C(N/N=C/c1cc([N+](=O)[O-])ccc1Cl)c1ccc(CNc2cccc3ccccc23)cc1` cannot be ordered by IC50: > 10000 nM for the first, > 10000 nM for the second.

Compared with `O=C(N/N=C/c1cc([N+](=O)[O-])ccc1Cl)c1ccc(CSc2ccnc3ccccc23)cc1`, `O=C(N/N=C/c1cc([N+](=O)[O-])ccc1Cl)c1ccc(CSc2cccc3ccccc23)cc1` is higher in IC50: 760 nM for the first, > 10000 nM for the second. The first is the more potent here.

Going from `COc1cc(/C=N/NC(=O)c2ccc(CSc3cccc4cccnc34)cc2)ccc1O` to `COc1ccc(/C=N/NC(=O)c2ccc(CSc3cccc4cccnc34)cc2)cc1OC`, the IC50 falls from 9190 nM to 4970 nM (1.8-fold).

`CSc1nnc(SCc2ccc(C(=O)N/N=C/c3cc([N+](=O)[O-])ccc3Cl)cc2)s1` and `O=C(N/N=C/c1cc([N+](=O)[O-])ccc1Cl)c1ccc(CSc2ccccc2Br)cc1` cannot be ordered by IC50: > 10000 nM for the first, > 10000 nM for the second.

Compared with `COc1ccc(/C=N/NC(=O)c2ccc(CSc3cccc4cccnc34)cc2)c(O)c1`, `O=C(N/N=C/c1ccc(F)cc1O)c1ccc(CSc2cccc3cccnc23)cc1` is 2-fold lower in IC50: 5440 nM for the first, 2700 nM for the second.

First: O=C(N/N=C/c1ccc(F)nc1)c1ccc(CSc2cccc3cccnc23)cc1
Second: O=C(N/N=C/c1ccc(Cl)nc1)c1ccc(CSc2cccc3cccnc23)cc1
The IC50 of the first is 7.7-fold lower: 660 nM for the first, 5100 nM for the second.

First: O=C(N/N=C/c1cc2c(cc1[N+](=O)[O-])OCO2)c1ccc(CSc2cccc3cccnc23)cc1
Second: O=C(N/N=C/c1cc([N+](=O)[O-])ccc1Cl)c1ccc(CSc2cccc3cccnc23)cc1
The IC50 of the first is 1.5-fold higher: 430 nM for the first, 280 nM for the second.

Compared with `C/C(=N\NC(=O)c1ccc(CSc2cccc3cccnc23)cc1)c1ccc(F)nc1`, `O=C(N/N=C/c1cccc(F)c1O)c1ccc(CSc2cccc3cccnc23)cc1` is lower in IC50: > 10000 nM for the first, 2980 nM for the second.

First: Cn1cc(/C=N/NC(=O)c2ccc(CSc3cccc4cccnc34)cc2)cn1
Second: O=C(N/N=C/c1ccc(F)cc1)c1ccc(CSc2cccc3cccnc23)cc1
The IC50 of the first is 10-fold higher: 26800 nM for the first, 2570 nM for the second. The second is the more potent here.

`CC(C)NC(=O)c1ccc(/C=N/NC(=O)c2ccc(CSc3cccc4cccnc34)cc2)cc1` and `COc1ccc(/C=N/NC(=O)c2ccc(CSc3cccc4cccnc34)cc2)cc1` are within 1.5-fold of each other in IC50: 940 nM for the first, 960 nM for the second.

`O=C(N/N=C/c1cc(F)c(F)cc1O)c1ccc(CSc2cccc3cccnc23)cc1` and `O=C(N/N=C/c1cc(O)c(Br)c(O)c1)c1ccc(CSc2cccc3cccnc23)cc1` are within 1.5-fold of each other in IC50: 2340 nM for the first, 2060 nM for the second.

First: O=C(N/N=C/c1ncccn1)c1ccc(CSc2cccc3cccnc23)cc1
Second: O=C(N/N=C/c1c(Cl)ccnc1Cl)c1ccc(CSc2cccc3cccnc23)cc1
The IC50 of the first is higher: > 10000 nM for the first, 480 nM for the second.

First: O=C(N/N=C/c1ccc(Br)o1)c1ccc(CSc2cccc3cccnc23)cc1
Second: COc1cc(F)ccc1/C=N/NC(=O)c1ccc(CSc2cccc3cccnc23)cc1
The IC50 of the first is higher: > 10000 nM for the first, 2850 nM for the second.

Compared with `O=C(N/N=C/c1cccc2ccncc12)c1ccc(CSc2cccc3cccnc23)cc1`, `O=C(N/N=C/c1cc2ccncc2[nH]1)c1ccc(CSc2cccc3cccnc23)cc1` is higher in IC50: 4330 nM for the first, > 10000 nM for the second.

`O=C(N/N=C/c1c(O)ccc2ccccc12)c1ccc(CSc2cccc3cccnc23)cc1` and `O=C(N/N=C/c1c(Cl)nc(Cl)nc1Cl)c1ccc(CSc2cccc3cccnc23)cc1` are within 1.5-fold of each other in IC50: 3920 nM for the first, 2940 nM for the second.
